ChEMBL document CHEMBL4007479, “Immunoregulatory effect assessment of a novel melanin and its carboxymethyl derivative” (2017)

Experiments:
Format in all cases: functional
Mus musculus [1] = assay: (§1) Immuno-regulatory activity in cyclophosphamide-induced immunocompromised Kunming mouse model assessed as SOD activity in kidney at 50 mg/kg administered once daily via gavage for 30 consecutive days measured after 12 hrs of fasting following last dose on day 30 (reference value: 198.82 +/- 9.98)
Mus musculus [2] = assay: as §1, with “recovery from spleen damage by measuring spleen weight index” for “SOD activity in kidney”, “dose” for “dose on day 30”, “4.59” for “198.82”, “0.28)” for “9.98)”
Mus musculus [3] = assay: (§2) Immuno-regulatory activity in cyclophosphamide-induced immunocompromised Kunming mouse model assessed as recovery from spleen damage by measuring spleen weight index at 200 mg/kg administered once daily via gavage for 30 consecutive days measured after 12 hrs of fasting following last dose (reference value: 4.59 +/- 0.28)
Mus musculus [4] = assay: as §2, with “thymus” for “spleen”, “50” for “200”, “0.98” for “4.59”, “0.14)” for “0.28)”
Mus musculus [5] = assay: as §2, with “thymus” for “spleen”, “0.98” for “4.59”, “0.14)” for “0.28)”
Mus musculus [6] = assay: (§3) Immuno-regulatory activity in cyclophosphamide-induced immunocompromised Kunming mouse model assessed as body weight at 50 mg/kg administered once daily via gavage for 30 consecutive days measured after 12 hrs of fasting following last dose (reference value: 30.3 +/- 2.47 mg)
Mus musculus [7] = assay: (§4) Immuno-regulatory activity in cyclophosphamide-induced immunocompromised Kunming mouse model assessed as body weight at 200 mg/kg administered once daily via gavage for 30 consecutive days measured after 12 hrs of fasting following last dose (reference value: 30.3 +/- 2.47 mg)
Mus musculus [8] = assay: as §2, with “macrophage elimination ability against foreign substances” for “recovery from spleen damage”, “carbon clearance” for “spleen weight”, “50” for “200”, “2.68” for “4.59”, “0.3)” for “0.28)”
Mus musculus [9] = assay: as §2, with “macrophage elimination ability against foreign substances” for “recovery from spleen damage”, “carbon clearance” for “spleen weight”, “2.68” for “4.59”, “0.3)” for “0.28)”
Mus musculus [10] = assay: as §3, with “peritoneal macrophage phagocytosis rate” for “body weight”, “dose by Giemsa staining based assay” for “dose”, “21.33” for “30.3”, “0.98%)” for “2.47 mg)”
Mus musculus [11] = assay: as §4, with “peritoneal macrophage phagocytosis rate” for “body weight”, “dose by Giemsa staining based assay” for “dose”, “21.33” for “30.3”, “0.98%)” for “2.47 mg)”
Mus musculus [12] = assay: as §3, with “peritoneal macrophage phagocytosis index” for “body weight”, “dose by Giemsa staining based assay” for “dose”, “0.5” for “30.3”, “0.03)” for “2.47 mg)”
Mus musculus [13] = assay: as §4, with “peritoneal macrophage phagocytosis index” for “body weight”, “dose by Giemsa staining based assay” for “dose”, “0.5” for “30.3”, “0.03)” for “2.47 mg)”
Mus musculus [14] = assay: as §1, with “enhancement of B cell-mediated humoral immunity by measuring SRBC half hemolysis value” for “SOD activity in kidney”, “days and SRBC immunization on day 26” for “days”, “173.42” for “198.82”, “7.75)” for “9.98)”
Mus musculus [15] = assay: Immuno-regulatory activity in cyclophosphamide-induced immunocompromised Kunming mouse model assessed as enhancement of B cell-mediated humoral immunity by measuring SRBC half hemolysis value at 200 mg/kg administered once daily via gavage for 30 consecutive days and SRBC immunization on day 26 measured after 12 hrs of fasting following last dose on day 30 (reference value: 173.42 +/- 7.75)
Mus musculus [16] = assay: (§5) Immuno-regulatory activity in cyclophosphamide-induced immunocompromised Kunming mouse model assessed as enhancement of B cell-mediated humoral immunity by measuring antibody producing cells in spleen against SRBC at 50 mg/kg administered once daily via gavage for 30 consecutive days measured after 12 hrs of fasting following last dose on day 30 (reference value: 0.48 +/- 0.05)
Mus musculus [17] = assay: as §5, with “200” for “50”
Mus musculus [18] = assay: (§6) Immuno-regulatory activity in cyclophosphamide-induced immunocompromised Kunming mouse model assessed as concanavalin A-induced lymphocyte proliferation stimulate index in spleen at 50 mg/kg administered once daily via gavage for 30 consecutive days measured after 12 hrs of fasting following last dose on day 30 by MTT assay (reference value: 0.054 +/- 0.001)
Mus musculus [19] = assay: as §6, with “200” for “50”
Mus musculus [20] = assay: (§7) Immuno-regulatory activity in cyclophosphamide-induced immunocompromised Kunming mouse model assessed as enhancement of T cell-mediated delayed-type hypersensitivity by measuring increase in paw weight at 50 mg/kg administered once daily via gavage for 30 consecutive days and SRBC immunization on day 26 measured after 12 hrs of fasting following last dose on day 30 relative to control
Mus musculus [21] = assay: as §7, with “200” for “50”
Mus musculus [22] = assay: Immuno-regulatory activity in cyclophosphamide-induced immunocompromised Kunming mouse model assessed as SOD activity in serum at 50 mg/kg administered once daily via gavage for 30 consecutive days measured after 12 hrs of fasting following last dose on day 30 (reference value: 91.98 +/- 3.32)
Mus musculus [23] = assay: Immuno-regulatory activity in cyclophosphamide-induced immunocompromised Kunming mouse model assessed as SOD activity in serum at 200 mg/kg administered once daily via gavage for 30 consecutive days measured after 12 hrs of fasting following last dose on day 30 (reference value: 91.98 +/- 3.32)
Mus musculus [24] = assay: Immuno-regulatory activity in cyclophosphamide-induced immunocompromised Kunming mouse model assessed as GSH-PX activity in serum at 50 mg/kg administered once daily via gavage for 30 consecutive days measured after 12 hrs of fasting following last dose on day 30 (reference value: 5.66 +/- 0.17)
Mus musculus [25] = assay: Immuno-regulatory activity in cyclophosphamide-induced immunocompromised Kunming mouse model assessed as GSH-PX activity in serum at 200 mg/kg administered once daily via gavage for 30 consecutive days measured after 12 hrs of fasting following last dose on day 30 (reference value: 5.66 +/- 0.17)
Mus musculus [26] = assay: Immuno-regulatory activity in cyclophosphamide-induced immunocompromised Kunming mouse model assessed as MDA content in serum at 50 mg/kg administered once daily via gavage for 30 consecutive days measured after 12 hrs of fasting following last dose on day 30 (reference value: 2.77 +/- 0.05)
Mus musculus [27] = assay: Immuno-regulatory activity in cyclophosphamide-induced immunocompromised Kunming mouse model assessed as MDA content in serum at 200 mg/kg administered once daily via gavage for 30 consecutive days measured after 12 hrs of fasting following last dose on day 30 (reference value: 2.77 +/- 0.05)
Mus musculus [28] = assay: Immuno-regulatory activity in cyclophosphamide-induced immunocompromised Kunming mouse model assessed as SOD activity in kidney at 200 mg/kg administered once daily via gavage for 30 consecutive days measured after 12 hrs of fasting following last dose on day 30 (reference value: 198.82 +/- 9.98)
Mus musculus [29] = assay: Immuno-regulatory activity in cyclophosphamide-induced immunocompromised Kunming mouse model assessed as GSH-PX activity in kidney at 50 mg/kg administered once daily via gavage for 30 consecutive days measured after 12 hrs of fasting following last dose on day 30 (reference value: 10.12 +/- 0.25)
Mus musculus [30] = assay: Immuno-regulatory activity in cyclophosphamide-induced immunocompromised Kunming mouse model assessed as GSH-PX activity in kidney at 200 mg/kg administered once daily via gavage for 30 consecutive days measured after 12 hrs of fasting following last dose on day 30 (reference value: 10.12 +/- 0.25)
Mus musculus [31] = assay: Immuno-regulatory activity in cyclophosphamide-induced immunocompromised Kunming mouse model assessed as MDA content in kidney at 50 mg/kg administered once daily via gavage for 30 consecutive days measured after 12 hrs of fasting following last dose on day 30 (reference value: 2.35 +/- 0.06)
Mus musculus [32] = assay: Immuno-regulatory activity in cyclophosphamide-induced immunocompromised Kunming mouse model assessed as MDA content in kidney at 200 mg/kg administered once daily via gavage for 30 consecutive days measured after 12 hrs of fasting following last dose on day 30 (reference value: 2.35 +/- 0.06)
Mus musculus [33] = assay: Immuno-regulatory activity in cyclophosphamide-induced immunocompromised Kunming mouse model assessed as SOD activity in liver at 50 mg/kg administered once daily via gavage for 30 consecutive days measured after 12 hrs of fasting following last dose on day 30 (reference value: 160.65 +/- 3.12)
Mus musculus [34] = assay: Immuno-regulatory activity in cyclophosphamide-induced immunocompromised Kunming mouse model assessed as SOD activity in liver at 200 mg/kg administered once daily via gavage for 30 consecutive days measured after 12 hrs of fasting following last dose on day 30 (reference value: 160.65 +/- 3.12)
Mus musculus [35] = assay: Immuno-regulatory activity in cyclophosphamide-induced immunocompromised Kunming mouse model assessed as GSH-PX activity in liver at 50 mg/kg administered once daily via gavage for 30 consecutive days measured after 12 hrs of fasting following last dose on day 30 (reference value: 9.52 +/- 0.26)
Mus musculus [36] = assay: Immuno-regulatory activity in cyclophosphamide-induced immunocompromised Kunming mouse model assessed as GSH-PX activity in liver at 200 mg/kg administered once daily via gavage for 30 consecutive days measured after 12 hrs of fasting following last dose on day 30 (reference value: 9.52 +/- 0.26)
Mus musculus [37] = assay: Immuno-regulatory activity in cyclophosphamide-induced immunocompromised Kunming mouse model assessed as MDA content in liver at 50 mg/kg administered once daily via gavage for 30 consecutive days measured after 12 hrs of fasting following last dose on day 30 (reference value: 3.34 +/- 0.18)
Mus musculus [38] = assay: Immuno-regulatory activity in cyclophosphamide-induced immunocompromised Kunming mouse model assessed as MDA content in liver at 200 mg/kg administered once daily via gavage for 30 consecutive days measured after 12 hrs of fasting following last dose on day 30 (reference value: 3.34 +/- 0.18)
Mus musculus [39] = assay: Immuno-regulatory activity in cyclophosphamide-induced immunocompromised Kunming mouse model assessed as SOD activity in spleen at 50 mg/kg administered once daily via gavage for 30 consecutive days measured after 12 hrs of fasting following last dose on day 30 (reference value: 94.84 +/- 3.28)
Mus musculus [40] = assay: Immuno-regulatory activity in cyclophosphamide-induced immunocompromised Kunming mouse model assessed as SOD activity in spleen at 200 mg/kg administered once daily via gavage for 30 consecutive days measured after 12 hrs of fasting following last dose on day 30 (reference value: 94.84 +/- 3.28)
Mus musculus [41] = assay: Immuno-regulatory activity in cyclophosphamide-induced immunocompromised Kunming mouse model assessed as GSH-PX activity in spleen at 50 mg/kg administered once daily via gavage for 30 consecutive days measured after 12 hrs of fasting following last dose on day 30 (reference value: 7.97 +/- 1.21)
Mus musculus [42] = assay: Immuno-regulatory activity in cyclophosphamide-induced immunocompromised Kunming mouse model assessed as GSH-PX activity in spleen at 200 mg/kg administered once daily via gavage for 30 consecutive days measured after 12 hrs of fasting following last dose on day 30 (reference value: 7.97 +/- 1.21)
Mus musculus [43] = assay: Immuno-regulatory activity in cyclophosphamide-induced immunocompromised Kunming mouse model assessed as MDA content in spleen at 50 mg/kg administered once daily via gavage for 30 consecutive days measured after 12 hrs of fasting following last dose on day 30 (reference value: 4.9 +/- 0.11)
Mus musculus [44] = assay: Immuno-regulatory activity in cyclophosphamide-induced immunocompromised Kunming mouse model assessed as MDA content in spleen at 200 mg/kg administered once daily via gavage for 30 consecutive days measured after 12 hrs of fasting following last dose on day 30 (reference value: 4.9 +/- 0.11)

**Q.** What does the source list for `O=C(O)C1c2cc(O)c(O)c3sc4c5c(O)[nH]c6cc(O)c(O)c(c65)c5c6ccc7ccc1c(c76)n(c23)c45` (centres undefined)?
**A.** Activity (Mus musculus [1]): 218.42; Activity_index (Mus musculus [2]): 4.61 mg/g; Activity_index (Mus musculus [3]): 5.13 mg/g; Activity_index (Mus musculus [4]): 1.01 mg/g; Activity_index (Mus musculus [5]): 1.37 mg/g; Activity (Mus musculus [6]): 32.9 g; Activity (Mus musculus [7]): 35.7 g; Activity_index (Mus musculus [8]): 2.95; Activity_index (Mus musculus [9]): 3.54; Activity (Mus musculus [10]): 22.14%; Activity (Mus musculus [11]): 26.31%; Activity_index (Mus musculus [12]): 0.53; Activity_index (Mus musculus [13]): 0.79; Activity (Mus musculus [14]): 175.62; Activity (Mus musculus [15]): 182.25; Activity (Mus musculus [16]): 0.52; Activity (Mus musculus [17]): 0.62; Activity_index (Mus musculus [18]): 0.061; Activity_index (Mus musculus [19]): 0.072; Activity (Mus musculus [20]): 42.87%; Activity (Mus musculus [21]): 79.3%; Activity (Mus musculus [22]): 94.15; Activity (Mus musculus [23]): 104.09; Activity (Mus musculus [24]): 5.76; Activity (Mus musculus [25]): 7.27; Activity (Mus musculus [26]): 2.66; Activity (Mus musculus [27]): 2; Activity (Mus musculus [28]): 233.49; Activity (Mus musculus [29]): 11.57; Activity (Mus musculus [30]): 16.79; Activity (Mus musculus [31]): 2.07; Activity (Mus musculus [32]): 1.83; Activity (Mus musculus [33]): 174.51; Activity (Mus musculus [34]): 202.26; Activity (Mus musculus [35]): 9.76; Activity (Mus musculus [36]): 16.1; Activity (Mus musculus [37]): 2.99; Activity (Mus musculus [38]): 2.25; Activity (Mus musculus [39]): 106.25; Activity (Mus musculus [40]): 110.54; Activity (Mus musculus [41]): 8.76; Activity (Mus musculus [42]): 11.99; Activity (Mus musculus [43]): 4.54; Activity (Mus musculus [44]): 3.13
